Experiment: gradient 5% acetonitrile 3 min, to 50% in 2 min, to 85% in 15 min, held 3 min, 100 µL/min
Conditions: column: Zorbax Extend-C18 2.1 x 50 mm; eluents: water / acetonitrile, 0.1% formic acid
Method in brief: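 Mixtures of ~100 pure standards were chromatographed on a Zorbax Extend-C18 column (2.1 × 50 mm, 1.8 μm) at 100 μL/min using water and acetonitrile, each with 0.1% formic acid. Detection used a quadrupole time-of-flight mass spectrometer in positive and negative ionization mode, and data collection spanned 3 months. Retention time was obtained from adduct peaks picked computationally and each checked manually.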

## CN1c2cc(Cl)ccc2C(=O)NC12CCN(C(=O)NCCc1ccccc1)CC2
  RP-LC retention time: 757 s

## O=C(CC1CCCC1)Nc1nc(-c2cccc3ccccc23)cs1
  RP-LC retention time: 1220 s

## CN(C)C(=O)CCc1ccc2c(c1)CN(C(=O)CC1CCCC1)CCO2
  RP-LC retention time: 781 s

## Cc1ccc(F)c(NC(=O)C2CC(=O)N(c3ccc4oc(C)nc4c3)C2)c1 (stereo not given)
  RP-LC retention time: 753 s

## O=S(=O)(Cc1ccccc1)N1CCC(Cc2nncn2-c2ccccc2)CC1
  RP-LC retention time: 1080 s

## O=C(Cn1nc2c(N3CCOCC3)nccn2c1=O)Nc1cc(C(F)(F)F)ccc1Cl
  RP-LC retention time: 827 s

## OCCN1CCN(c2ncnc3c2cnn3-c2cccc(Cl)c2)CC1
  RP-LC retention time: 592 s

## Cn1c(=O)n(C)c2cc(Nc3cc(N4CCOCC4)ncn3)ccc21
  RP-LC retention time: 566 s

## CC(=O)N1CCC(c2nc(-c3ccc4c(c3)ncn4CCN3CCCC3)no2)CC1
  RP-LC retention time: 553 s

## Cc1ccc(Nc2c(-c3ccccc3)nc3ccc(C)cn23)cc1
  RP-LC retention time: 750 s

## CN(C)CCCNC(=O)c1cc(-c2ccc(Cl)cc2)cn1C
  RP-LC retention time: 671 s

## CCC(C)NC(=O)c1cccc(C)c1 (stereo not given)
  RP-LC retention time: 847 s

## CCCNC(=O)N1CCC(N2CCN(Cc3cccc(F)c3)C(=O)C2=O)CC1
  RP-LC retention time: 651 s

## Cc1cccc(NS(=O)(=O)c2cc3c(=O)n(C)ncn3c2)c1
  RP-LC retention time: 797 s

## Cn1c(=O)c(N2CCN(C(=O)Cc3ccc(Br)cc3)CC2)nc2cccnc21
  RP-LC retention time: 938 s

## C[C@H]1CN(C(=O)Nc2cc(F)cc(F)c2)C[C@@H]1c1nc(-c2ccncc2)no1
  RP-LC retention time: 883 s

## CCN(CC)C(=O)N1CCCC(Cc2nncn2-c2ccccc2)C1 (stereo not given)
  RP-LC retention time: 628 s

## COc1ccccc1CNS(=O)(=O)c1cc2n(c1)CCN(C(C)C)C2=O
  RP-LC retention time: 784 s

## Cn1c(=O)sc2cc(S(=O)(=O)N3CCC(C(=O)N4CCCC4)CC3)ccc21
  RP-LC retention time: 702 s

## O=C(O)c1cc(=O)c2cc(Cl)ccc2[nH]1
  RP-LC retention time: 692 s

## CC(C)N1CCN(C(=O)C2CC(=O)N(CCc3ccccc3)C2)CC1 (stereo not given)
  RP-LC retention time: 573 s

## Cc1ccc(C(=O)NCC(=O)N2CCCc3ccccc32)s1
  RP-LC retention time: 830 s

## COCCOCc1nc(C2CCN(S(=O)(=O)c3c(C)noc3C)CC2)no1
  RP-LC retention time: 793 s

## O=C(Cn1nc2c3cc(-c4ccc(F)cc4)nn3ccn2c1=O)Nc1ccc(Br)cc1
  RP-LC retention time: 923 s

## O=C(NCc1ccc2c(c1)OCO2)C1CCCN(c2ncc(-c3ccccc3)cn2)C1 (stereo not given)
  RP-LC retention time: 992 s

## CCN1C(=O)c2cccnc2Sc2cc(CNC(=O)c3cccc(F)c3)ccc21
  RP-LC retention time: 791 s

## Cc1ccc2[nH]cc(CCNC(=O)c3cccc(NC(=O)c4nnc(C5CC5)s4)c3)c2c1
  RP-LC retention time: 932 s

## Cc1scc2nc(C3CCC3)nc(N3CCC(C(=O)N4CCN(c5ccccn5)CC4)CC3)c12
  RP-LC retention time: 587 s

## Cc1ccccc1Cn1nc2c(S(=O)(=O)N3CCOCC3)cccn2c1=O
  RP-LC retention time: 794 s

## COc1ccccc1-c1nc(C2CC(=O)N(c3ccc(Cl)cc3)C2)no1 (stereo not given)
  RP-LC retention time: 1020 s

## Cc1cccc(S(=O)(=O)N2CCC(C)(C(=O)NCc3ccccc3)CC2)c1
  RP-LC retention time: 935 s

## Cc1nc(N2CCN(c3ncccn3)CC2)nc2c1C(=O)CC(c1ccccc1O)C2 (stereo not given)
  RP-LC retention time: 969 s

## Cc1nc(-c2ccc(OC3CCN(C(=O)NC(C)C)C3)cc2)no1 (stereo not given)
  RP-LC retention time: 730 s

## COc1ccccc1CNC(=O)C1CCCN(c2nnc3ccccn23)C1 (stereo not given)
  RP-LC retention time: 652 s

## Cc1nc(C)c(C(=O)NCC23CCCC=C2N(C)C(=O)CC3)s1 (stereo not given)
  RP-LC retention time: 682 s

## Cc1cc(C)n(-c2cc(NCCNC(=O)c3c[nH]c4ccccc34)nc(C)n2)n1
  RP-LC retention time: 630 s

## Cc1ccc(CNC(=O)Cn2c(C)nc3onc(C)c3c2=O)cc1
  RP-LC retention time: 764 s

## CC(C)c1ccc(NC(=O)c2cc3sc(Cl)cc3n2C)cc1
  RP-LC retention time: 1300 s

## CSc1ccc(-c2nc3ccc(C)cn3c2Nc2ccc3c(c2)OCO3)cc1
  RP-LC retention time: 739 s

## CC1CCCN(C(=O)c2ccc3ncnc(N4CCCC4)c3c2)C1 (stereo not given)
  RP-LC retention time: 640 s

## Cc1ccc(CNC(=O)c2nc3cccnc3n(CC(C)C)c2=O)cc1C
  RP-LC retention time: 1010 s

## CC1CCN(c2ncc(C(=O)O)c(-c3ccncc3)n2)CC1
  RP-LC retention time: 683 s

## C[C@@H](NC(=O)c1ccccc1Br)C(=O)NCc1cscn1
  RP-LC retention time: 635 s

## COCCC(=O)N(C)Cc1cccnc1Oc1ccccc1
  RP-LC retention time: 1060 s

## O=C(Cn1cccc1-c1nnc(C2CCC2)o1)Nc1ccccc1
  RP-LC retention time: 862 s

From the METLIN SMRT retention time set (Domingo-Almenara et al. 2019)
